# According to US20070249670A1, “Glycogen Phosphorylase Inhibitor Compounds and Pharmaceutical Compositions Thereof” (SMITHKLINE BEECHAM CORPORATION, priority 2004, published 2007):
# Molecular target: T1, human liver glycogen phosphorylase a (HLGPa) (Homo sapiens, UniProt P06737)
# T1 construct: creating a full-length cDNA fused at the 5′ end to codons for methionine-glycine-alanine-histidine; 6xHis tag (leader Met-Gly-Ala-His6-Gly-Gly) (N); made in house; host or cells: E. coli (bacterial expression plasmid pTXK1007LTev)
# T1 sequence (P06737 2-847 limits assumed): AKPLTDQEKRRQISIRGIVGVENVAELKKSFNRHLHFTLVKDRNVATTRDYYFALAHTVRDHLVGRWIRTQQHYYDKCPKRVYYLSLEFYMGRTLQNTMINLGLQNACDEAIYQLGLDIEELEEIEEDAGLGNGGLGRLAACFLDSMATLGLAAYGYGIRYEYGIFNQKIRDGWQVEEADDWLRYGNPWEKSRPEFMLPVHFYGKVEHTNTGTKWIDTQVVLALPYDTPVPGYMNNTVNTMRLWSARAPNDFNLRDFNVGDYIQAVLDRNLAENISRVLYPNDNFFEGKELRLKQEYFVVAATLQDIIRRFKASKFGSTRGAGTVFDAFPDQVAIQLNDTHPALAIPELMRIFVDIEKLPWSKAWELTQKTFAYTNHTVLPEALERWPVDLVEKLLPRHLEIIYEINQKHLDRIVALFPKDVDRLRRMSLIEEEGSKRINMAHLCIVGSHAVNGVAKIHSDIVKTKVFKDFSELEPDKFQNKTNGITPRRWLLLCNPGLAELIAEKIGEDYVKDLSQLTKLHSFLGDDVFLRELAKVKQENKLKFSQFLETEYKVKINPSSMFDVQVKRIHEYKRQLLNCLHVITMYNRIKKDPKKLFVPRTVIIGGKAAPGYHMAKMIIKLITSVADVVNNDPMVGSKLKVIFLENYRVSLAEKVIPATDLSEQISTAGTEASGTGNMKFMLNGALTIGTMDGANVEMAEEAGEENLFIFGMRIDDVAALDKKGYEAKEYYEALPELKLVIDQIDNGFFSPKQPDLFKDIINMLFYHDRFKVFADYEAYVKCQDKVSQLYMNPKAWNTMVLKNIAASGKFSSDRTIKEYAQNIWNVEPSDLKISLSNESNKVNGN
# Test: Human liver glycogen phosphorylase a enzymatic activity assay (coupled, fluorescent resorufin readout, with and without 10 mM glucose)
# Assay type: biochemical
# Conditions: human liver glycogen phosphorylase a enzymatic activity assay
row,IC50 [nM],SMILES
1,6500,"Cc1ccccc1NC(=O)Nc1cc2ccccc2cc1C(=O)NCC(=O)O [Example 10, N-[3-({[(2-methylphenyl)amino]carbonyl}amino)-2-naphthoyl]glycine]"
2,35,"O=C(Nc1cc2ccccc2cc1C(=O)NC(C(=O)O)[C@H]1CC[C@@H](C(F)(F)F)CC1)Nc1c(Cl)cc(OC(F)(F)F)cc1Cl (stereo partly drawn) [Example 467, {[(3-{[({2,6-dichloro-4-[(trifluoromethyl)oxy]phenyl}amino)carbonyl]amino}-2-naphthalenyl)carbonyl]amino}[cis-4-(trifluoromethyl)cyclohexyl]acetic acid]"
3,250,"COc1ccc(-c2cc(NC(=O)Nc3c(C)cc(C)cc3C)c(C(=O)NC3(C(=O)O)CCC3)s2)cc1 [Example 450, 1-({[5-[4-(methyloxy)phenyl]-3-({[(2,4,6-trimethylphenyl)amino]carbonyl}amino)-2-thienyl]carbonyl}amino)cyclobutanecarboxylic acid]"
4,206,"Cc1cc(C)c(NC(=O)Nc2cc(-c3cc(F)c(F)c(F)c3)sc2C(=O)NC2(C(=O)O)CCCCC2)c(C)c1 [Example 535, 1-({[5-(3,4,5-trifluorophenyl)-3-({[(2,4,6-trimethylphenyl)amino]carbonyl}amino)-2-thienyl]carbonyl}amino) cyclohexanecarboxylic acid]"
5,9960,"CC(C)C[C@H](NC(=O)c1c(NC(=O)Nc2c(Cl)cccc2Cl)sc2c1CCCC2)C(=O)O [Example 131, N-{[2-({[(2,6-dichlorophenyl)amino]carbonyl}amino)-4,5,6,7-tetrahydro-1-benzothien-3-yl]carbonyl}-L-leucine]"
6,0.4,"CCCc1cc(C)c(NC(=O)Nc2cc(-c3ccc(F)c(F)c3)ccc2C(=O)N[C@H](C(=O)O)[C@@H](C)OC(C)(C)C)c(C)c1 [Example 481, O-(1,1-dimethylethyl)-N-{[3-({[(2,6-dimethyl-4-propylphenyl)amino]carbonyl}amino)-3′,4′-difluoro-4-biphenylyl]carbonyl}-L-threonine]"

# Same assay, conditions: human liver glycogen phosphorylase a; table does not say whether with or without 10 mM glucose
row,IC50 [nM],SMILES
1,140,"COc1ccc(-c2ccc(C(=O)N[C@H](c3nn[nH]n3)C3CCCCC3)c(NC(=O)Nc3c(C)cc(C)cc3C)c2)cc1 [Example 205, N—[(S)-cyclohexyl(1H-tetrazol-5-yl)methyl]-4′-(methyloxy)-3-({[(2,4,6-trimethylphenyl)amino]carbonyl}amino)-4-biphenylcarboxamide]"
2,2120,"Cc1cccc(C)c1NC(=O)Nc1cc2ccccc2cc1C(=O)N(CC(=O)O)CC(=O)O [Example 246, 2,2′-({[3-({[(2,6-dimethylphenyl)amino]carbonyl}amino)-2-naphthalenyl]carbonyl}imino)diacetic acid]"
3,11,"CCCc1cc(C)c(NC(=O)Nc2cc3ccccc3cc2C(=O)NC2(C(=O)O)CCCCCC2)c(C)c1 [Example 309, 1-({[3-({[(2,6-dimethyl-4-propylphenyl)amino]carbonyl}amino)-2-naphthalenyl]carbonyl}amino)cycloheptanecarboxylic acid]"
4,6070,"COc1ccc(-c2ccc(C(=O)N[C@@H](CC(=O)OC(C)(C)C)C(=O)OC(C)(C)C)c(NC(=O)Nc3c(C)cc(C)cc3C)c2)cc1 [Example 361, bis(1,1-dimethylethyl) N-{[4′-(methyloxy)-3-({[(2,4,6-trimethylphenyl)amino]carbonyl}amino)-4-biphenylyl]carbonyl}-L-aspartate]"
5,3460,"Cc1cc(C)c(NC(=O)Nc2cc3ccccc3cc2C(=O)O)c(C)c1 [Example 263, 3-({[(2,4,6-trimethylphenyl)amino]carbonyl}amino)-2-naphthalenecarboxylic acid]"
6,640,"CCOC(=O)C[C@H](NC(=O)c1ccc(-c2ccc(OC)cc2)cc1NC(=O)Nc1c(C)cc(C)cc1C)C(=O)O [Example 367, (2S)-4-(ethyloxy)-2-({[4′-(methyloxy)-3-({[(2,4,6-trimethylphenyl)amino]carbonyl}amino)-4-biphenylyl]carbonyl}amino)-4-oxobutanoic acid]"
